Experimental data as given in US9814709B2, “Bruton's tyrosine kinase inhibitor” (HEFEI INSTITUTES OF PHYSICAL SCIENCE, CHINESE ACADEMY OF …, priority 2014, dated 2017).

What was measured:
Format in all cases: cell-based
[1] = test system: mantel cell lymphoma (MCL) cells Z-138; test: Cancer cell growth, Cell Titer-Glo; conditions: Homo sapiens; Z-138, 72 hrs; read-out: Half inhibitory concentration IC50
Excerpt: (§1) We further assessed the selectivity of Compound 1 to inhibit the proliferation of cancer cells, by testing the effect of Btk inhibitor on the growth of cancer cells. In the example, we used B-lymphoma cell Ramos, cervical cancer cells HeLa, prostate cancer cells DU145, RV-1 and C4-2, colon cancer cells HCT116, blood cancer cells K562, B-cell lymphoma cells U2932, diffuse large B-cell lymphoma cells OCI-LY10, diffuse histiocytic lymphoma cells SU-DHL-2, diffuse large B-cell lymphoma cells TMD8, human non-small cell lung cancer cells H1975 (expressing EGFR L858R/T790M double mutant gene), human lung adenocarcinoma cells A549 (expressing wild-type EGFR gene), human non-small cell lung cancer cells H460 (expressing wild-type EGFR gene), mantel cell lymphoma (MCL) cells Z-138, EB virus infected human peripheral lymphocyte cells JVM-2, MCL cells REC-1, leukemia cells AML-3, acute promyelocytic leukemia cell line NB-4(Lu+), MDS-RAEB (myelodysplastic syndrome-excessive blasts) cell line SKM-1 human leukemia cell Nomo-1, human B-cell leukemia cell line NALM6, human leukocyte leukemia cells HEL, human T-cell lymphoma cells PF-382, acute myelocytic leukemia (AML) cell line MOLM14, AML cell line MOLM13, human Burkitt's lymphoma cells Namalwa, mouse pro-B cells BaF3, all of where were purchased from ATCC. Also used were mouse TEL-EGFR-BaF3 (stably expressing TEL-EGFR activated kinase), mouse TEL-EGFR/T790-BaF3 cells (stably expressing TEL-EGFR-T790M activated mutant kinase), mouse TEL-EGFR/L858R-BaF3 cells (stably expressing TEL-EGFR-L858R activated mutant kinase), mouse TEL-EGFR/T790/L858R-BaF3 (stably expressing TEL-EGFR-T790M/L858R activated mutant kinase), mouse TEL-BMX-BaF3 cells (stably expressing TEL-BMX activated kinase), mouse TEL-JAK1-BaF3 cells (stably expressing TEL-JAK1 activated kinase), mouse TEL-JAK2-BaF3 cells (stably expressing TEL-JAK2 activated kinase), mouse TEL-JAK3-BaF3 cells (stably expressing TEL-JAK3 activated kinase), where were all established by our laboratory via the following method: the kinase domain sequences of human EGFR, BMX, JAK1, JAK2, JAK3 were amplified respectively by PCR, and these kinase were inserted into the MSCV-Puro vectors with N-terminal TEL segment (Clontech); if there was a mutation, the mutation of the corresponding site was conducted by Site-Directed Mutagenesis kit (Stratagene); the resultants were stably transfected into mouse BaF3 cells by the means of retrovirus, and the IL-3 growth factors were removed, and eventually the EGFR, BMX, JAK1, JAK2, JAK3-transferred protein dependent cell lines were obtained.
(§2) In the example, different concentrations (0.000508 μM, 0.00152 μM, 0.00457 μM, 0.0137 μM, 0.0411 μM, 0.123 μM, 0.370 μM, 1.11 μM, 3.33 μM, 10 μM) of Compound 1 and Compound 19 were added into above cells, and were incubated for 72 hrs. The number of viable cells was determined by quantitating ATP in viable cells using Cell Titer-Glo® (Promega, U.S.) chemiluminescence cell viability assay kit.

[2] = test system: human non-small cell lung cancer cells H1975 (expressing EGFR L858R/T790M double mutant gene); test: Cancer cell growth, Cell Titer-Glo; conditions: NCI-H1975, H1975, 72 hrs, read-out: Half inhibitory concentration IC50
Excerpt: as §1, §2

[3] = test system: human non-small cell lung cancer cells H460 (expressing wild-type EGFR gene); test: Cancer cell growth, Cell Titer-Glo; conditions: NCI-H460, H460, 72 hrs, read-out: Half inhibitory concentration IC50
Excerpt: as §1, §2

[4] = test system: diffuse large B-cell lymphoma cells TMD8; test: Cancer cell growth, Cell Titer-Glo; conditions: Homo sapiens; TMD8, 72 hrs; read-out: Half inhibitory concentration IC50
Excerpt: as §1, §2

[5] = test system: diffuse histiocytic lymphoma cells SU-DHL-2; test: Cancer cell growth, Cell Titer-Glo; conditions: Homo sapiens; SU-DHL-2, 72 hrs; read-out: Half inhibitory concentration IC50
Excerpt: as §1, §2

[6] = test system: human leukocyte leukemia cells HEL; test: Cancer cell growth, Cell Titer-Glo; conditions: 72 hrs, read-out: Half inhibitory concentration IC50
Excerpt: as §1, §2

[7] = test system: human leukemia cell Nomo-1; test: Cancer cell growth, Cell Titer-Glo; conditions: Nomo-1, 72 hrs, read-out: Half inhibitory concentration IC50
Excerpt: as §1, §2

[8] = test system: human B-cell leukemia cell line NALM6; test: Cancer cell growth, Cell Titer-Glo; conditions: NALM-6, NALM6, 72 hrs, read-out: Half inhibitory concentration IC50
Excerpt: as §1, §2

[9] = test system: acute promyelocytic leukemia cell line NB-4(Lu+); test: Cancer cell growth, Cell Titer-Glo; conditions: 72 hrs, read-out: Half inhibitory concentration IC50
Excerpt: as §1, §2

[10] = test system: B-cell lymphoma cells U2932; test: Cancer cell growth, Cell Titer-Glo; conditions: Homo sapiens; U2932, 72 hrs; read-out: Half inhibitory concentration IC50
Excerpt: as §1, §2

B-lymphoma cell Ramos = test: Cancer cell growth, Cell Titer-Glo; conditions: Homo sapiens, 72 hrs, read-out: Half inhibitory concentration IC50
Excerpt: as §1, §2

[11] = test system: human Burkitt's lymphoma cells Namalwa; test: Cancer cell growth, Cell Titer-Glo; conditions: Burkitts lymphoma cell, 72 hrs, read-out: Half inhibitory concentration IC50
Excerpt: as §1, §2

BTK = BTK (Homo sapiens, UniProt Q06187); test: Phosphorylation of BTK in IL2-stimulated PBMC, Western Blot; set-up: endogenous in cells; host or cells: human peripheral blood mononuclear cells (PBMC); conditions: 3.5 hours, then 20 ng/mL IL2 30 min
Chain of BTK (Q06187 whole entry): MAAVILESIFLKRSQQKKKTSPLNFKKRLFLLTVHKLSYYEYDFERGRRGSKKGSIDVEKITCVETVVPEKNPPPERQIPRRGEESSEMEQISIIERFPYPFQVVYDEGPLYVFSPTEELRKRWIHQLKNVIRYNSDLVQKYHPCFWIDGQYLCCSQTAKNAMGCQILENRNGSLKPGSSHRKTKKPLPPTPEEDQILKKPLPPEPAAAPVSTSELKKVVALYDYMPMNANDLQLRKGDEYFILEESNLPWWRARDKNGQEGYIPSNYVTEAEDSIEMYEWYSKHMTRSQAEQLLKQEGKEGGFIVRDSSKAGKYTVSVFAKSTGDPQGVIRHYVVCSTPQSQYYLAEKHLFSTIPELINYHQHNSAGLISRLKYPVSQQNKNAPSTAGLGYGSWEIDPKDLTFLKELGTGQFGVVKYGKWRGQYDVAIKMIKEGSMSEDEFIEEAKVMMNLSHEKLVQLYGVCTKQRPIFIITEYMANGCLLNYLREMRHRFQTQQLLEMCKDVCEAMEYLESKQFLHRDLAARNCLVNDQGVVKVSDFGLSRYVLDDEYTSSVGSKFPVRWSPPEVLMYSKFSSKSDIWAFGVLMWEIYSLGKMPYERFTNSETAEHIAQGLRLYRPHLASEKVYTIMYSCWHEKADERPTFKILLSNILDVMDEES
Procedure: In order to test the effect of Compound 1 on human cells, a peripheral blood mononuclear cell (PBMC) culture system with BTK signal being activated by in vitro stimulation was introduced. The phenomena occurred in the clinical patients were simulated by stimulating PBMC of a normal human with IL2 to activate the BTK signal. PBMC cells were seeded in 6-well plate and Compound 1 of different concentrations (0, 0.01, 0.1, 1 μM), 1 μM of PCI-32765 and 1 μM of Compound 19 were added; 3.5 hours later after the administration, the samples were stimulated with 20 ng/ML IL2 for 30 min and then were collected. Western Blot assay was performed. […] The negative control Compound 19 had no effect on the phosphorylation of BTK.

IC50 [1]	IC50 [2]	IC50 [3]	IC50 [4]	IC50 [5]	IC50 [6]	IC50 [7]	IC50 [8]	IC50 [9]	IC50 [10]	IC50 (B-lymphoma cell Ramos)	IC50 [11]	effect on phosphorylation of BTK in PBMCs (BTK; 0.01, 0.1, 1 μM, some dose-dependency)	Structure (SMILES)	effect on phosphorylation of BTK in PBMCs (BTK; 1 μM)
> 10 µM	> 10 µM	> 10 µM	> 10 µM	> 10 µM	> 10 µM	> 10 µM	> 10 µM	> 10 µM	> 10 µM	> 10 µM	> 10 µM	–	CCC(=O)Nc1cc(-n2c(=O)ccc3cnc4ccc(-n5cccn5)cc4c32)ccc1C [Compound 19, N-(2-methyl-5-(2-oxo-9-(1H-pyrazol-1-yl)benzo[H][1,6]naphthyridin-1(2H)-yl)phenyl) propionamide]	no effect
8.5 µM	3.81 µM	> 10 µM	3.43 µM	5.02 µM	1.8 µM	4.9 µM	1.17 µM	3.7 µM	1.15 µM	> 10 µM	4.5 µM	significantly inhibited	C=CC(=O)Nc1cc(-n2c(=O)ccc3cnc4ccc(-n5cccn5)cc4c32)ccc1C [Compound 1, N-(2-methyl-5-(2-oxo-9-(1H-pyrazol-1-yl)benzo[H][1,6]naphthyridin-1(2H)-yl)phenyl)acrylamide]	comparative to that of the positive control
